Legend:
human recombinant PKM2 = biological target: T1, human recombinant PKM2 (Homo sapiens, UniProt P14618); assay: Pyruvate kinase enzyme-coupled (LDH/NADH) assay with recombinant PKM2; assay type: biochemical
T1 construct: purchased Sigma SAE0021
Description: Recombinant Enzyme. An enzyme-coupled assay that measures the depletion of NADH via absorbance at 340 nm and uses lactate dehydrogenase (LDH) was employed to determine the activity of pyruvate kinase (PK). To determine the AC50 (concentration of activator necessary to achieve half-maximal activation) of the different small molecules with PKM2, assays were conducted in a 96-well format using 200 μL/well assay volume with 10 nM human recombinant PKM2 (Sigma, St. Louis, MO, USA, Cat No. SAE0021) or PKM1 (Sigma, […], Cat No. SRP0415), differing concentrations of activator, 0.5 mM PEP, 1 mM ADP, 0.2 mM NADH, and 8 U of LDH in a buffer of 50 mM Tris-HCl (pH 7.4), 100 mM KCl, and 5 mM MgCl2 as previously described. A SPECTROstar Omega plate reader (BMG LABTECH Inc., Cary, NC, USA) monitored absorbance at 340 nm. The MARS software suite was utilized to determine initial velocities. Data were normalized to DMSO (dimethyl sulfoxide)-treated enzyme activity, as previously described.

[1] = biological target: T2, pyruvate kinase (PK) activity in 661W cells (Mus musculus, UniProt P52480); assay: PK activity in 661W cell lysates after 2 h incubation with activator; assay type: cell-based
T2 construct: endogenous in cells; host or cells: 661W photoreceptor-like cells
Description: The potency and efficacy of each compound, 1 through 5, was assessed with recombinant human PKM2 using an enzyme-coupled assay that uses lactate dehydrogenase and measures the reduction in NADH via absorbance at 340 nm. […] To assess the ability of this pyridazinoindolone series of compounds to cross cellular membranes and increase PK activity, we utilized 661W cells, which are immortalized photoreceptor-like cells that express cone markers.
Cell culture. Next, 661W cells were incubated with either DMSO or different concentrations of small-molecule PKM2 activator for 2 h, lysed and homogenized in RIPA Lysis and Extraction Buffer (Thermo Fisher, Waltham, MA, USA, Cat No. 89900) with protease inhibitors (Complete-Mini, Roche Diagnostics, Indianapolis, IN, USA), and centrifuged at 10,000 rpm for 10 min to remove cellular debris. The supernatant (4–8 μL) was then used to assess the pyruvate kinase activity as described above. The total protein content was determined using the Pierce BCA protein assay kit (Thermo Fisher, Waltham, MA, USA, Cat No. 23225) with the Pierce™ Bovine Serum Albumin Standard Pre-Diluted Set (Thermo Fisher, Waltham, MA, USA, Cat No. 23208) and used to normalize activity as described previously.

[2] = system: cleaved caspase-8-positive cells in the retina; assay: Experimental retinal detachment, flow cytometry of cleaved caspase 8; assay type: in vivo; conditions: rat retinal detachment, highest dose tested (1 mM final vitreous), intravitreal, 3 days, versus DMSO
Excerpt: Caspase activation, including caspase 8, increases 3 days status post experimental retinal detachment and has been validated to be a marker of photoreceptor apoptosis and the extent of retinal-detachment-induced photoreceptor cell death. Additionally, this caspase activation coincides with the peak of the terminal deoxynucleotidyl transferase dUTP nick end labeling (TUNEL) staining of photoreceptors, specifically after experimental retinal detachment in rodents. So, the detection and quantification of cleaved caspase 8 can be used as a marker of photoreceptor death after experimental retinal detachment and to assess the efficacy of neuroprotective agents. As such, different concentrations of compound 2 or its vehicle, DMSO, were injected at the time of retinal detachment creation in rats, and the retinas were harvested 3 days later to assess caspase 8 activation.
Detachments were created in rats as previously outlined. In brief, rats were anesthetized with ketamine (100 mg/mL) and xylazine (20 mg/mL), and their pupils were dilated as above. […]
After washing the cells in ice-cold PBS, the cells were fixed with 4% paraformaldehyde for 20 min at room temperature followed by two PBS washes via centrifugation at 300× g for 10 min at 4 °C. […] Data were analyzed with FCS Express software (De Novo Software, Ontario, CA, USA).

T2 sequence (P52480 whole entry): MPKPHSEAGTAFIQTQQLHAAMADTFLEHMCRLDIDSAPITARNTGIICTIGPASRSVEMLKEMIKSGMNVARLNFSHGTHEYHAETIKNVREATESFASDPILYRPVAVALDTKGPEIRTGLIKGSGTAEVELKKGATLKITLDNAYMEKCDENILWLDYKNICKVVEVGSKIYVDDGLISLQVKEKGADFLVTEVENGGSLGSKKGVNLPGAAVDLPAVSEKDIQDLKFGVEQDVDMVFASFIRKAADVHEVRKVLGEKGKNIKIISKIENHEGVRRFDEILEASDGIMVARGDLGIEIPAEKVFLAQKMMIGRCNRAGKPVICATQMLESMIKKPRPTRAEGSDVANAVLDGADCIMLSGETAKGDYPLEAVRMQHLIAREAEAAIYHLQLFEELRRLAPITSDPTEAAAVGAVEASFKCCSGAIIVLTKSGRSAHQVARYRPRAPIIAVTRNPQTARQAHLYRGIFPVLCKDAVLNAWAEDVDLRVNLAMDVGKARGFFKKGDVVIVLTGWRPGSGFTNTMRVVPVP
T1 sequence (P14618 whole entry): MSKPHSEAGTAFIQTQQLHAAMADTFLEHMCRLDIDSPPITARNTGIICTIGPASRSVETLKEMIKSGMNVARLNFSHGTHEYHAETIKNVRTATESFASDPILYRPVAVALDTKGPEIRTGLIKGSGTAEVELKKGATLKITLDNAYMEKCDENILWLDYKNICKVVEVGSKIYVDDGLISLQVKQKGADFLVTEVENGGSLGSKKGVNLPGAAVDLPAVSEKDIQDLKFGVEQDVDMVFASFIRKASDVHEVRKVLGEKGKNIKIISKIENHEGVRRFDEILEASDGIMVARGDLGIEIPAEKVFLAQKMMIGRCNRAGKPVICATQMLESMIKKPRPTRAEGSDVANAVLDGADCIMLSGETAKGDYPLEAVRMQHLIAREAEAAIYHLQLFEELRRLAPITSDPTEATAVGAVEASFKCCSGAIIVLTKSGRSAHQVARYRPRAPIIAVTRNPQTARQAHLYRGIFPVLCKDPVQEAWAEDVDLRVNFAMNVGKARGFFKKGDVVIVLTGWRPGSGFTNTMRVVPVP

- AC50 (human recombinant PKM2; recombinant human PKM2, n = 3, best-fit value ± std. error): 50 ± 12 nM
- Emax (human recombinant PKM2; recombinant human PKM2, n = 3, normalized to DMSO-treated enzyme, read-out: Recombinant PKM2 Max Activation): 292 ± 20%
- AC50 ([1]; n = 3): 120 ± 45 nM
- Emax ([1]; n = 3, read-out: 661W Cells Max Activation): 355 ± 26%
Compound: Cn1c2cc([S+](C)[O-])ccc2c2cnn(Cc3cccc(N)c3)c(=O)c21 (centres unmarked) [Compound 2]
- percentage of cleaved caspase-8-positive cells in the retina [2]: statistically significantly reduced
